From ChEMBL document CHEMBL4371025, “Discovery and evaluation of novel FAAH inhibitors in neuropathic pain model” (Bioorg Med Chem Lett, 2019)

Columns and labels:
[1] = Drug level in liver of Sprague-Dawley rat at 10 mg/kg, po administered as single dose via gavage measured at 32 hrs by LC-MS/MS analysis; format: ADME, organism-based; details: read-out: Drug uptake
[2] = Intrinsic metabolic stability in human liver microsomes assessed as metabolic turnover rate per mg protein at 1 uM preincubated for 5 mins followed by NADPH cofactor addition and measured after 30 mins by LC-MS/MS analysis; format: ADME, Microsome; details: 0.5 h
[3] = Clearance in Sprague-Dawley rat at 3 mg/kg, iv administered as single dose by LC-MS/MS analysis; format: ADME, organism-based; details: in vivo
[4] = Volume of distribution at steady state in Sprague-Dawley rat at 3 mg/kg, iv or 10 mg/kg, po administered as single dose via gavage by LC-MS/MS analysis; format: ADME, organism-based; details: in vivo, read-out: Vdss
[5] = Cmax in Sprague-Dawley rat at 10 mg/kg, po administered as single dose via gavage by LC-MS/MS analysis; format: ADME, organism-based; parameters: dose 10 mg/kg, route oral; details: in vivo
[6] = target: Cytochrome P450 2C9 (Homo sapiens, UniProt P11712); test: Inhibition of CYP2C9 in human liver microsomes using diclofenac as substrate preincubated for 5 mins followed by NADPH cofactor addition and measured after 10 mins by LC-MS/MS analysis; format: ADME
[7] = AUC (0 to 48 hrs) in liver of Sprague-Dawley rat at 10 mg/kg, po administered as single dose via gavage by LC-MS/MS analysis; format: ADME, organism-based; parameters: time < 48 hr, dose 10 mg/kg, route oral
[8] = Elimination half life in Sprague-Dawley rat at 3 mg/kg, iv administered as single dose by LC-MS/MS analysis; format: ADME, organism-based; details: in vivo, read-out: beta t1/2 (converted)
[9] = Ratio of AUC (0 to 48 hrs) in brain to plasma of Sprague-Dawley rat at 10 mg/kg, po administered as single dose via gavage by LC-MS/MS analysis; format: ADME, organism-based; details: brain and plasma, read-out: Ratio AUC
[10] = Drug level in plasma of Sprague-Dawley rat at 10 mg/kg, po administered as single dose via gavage measured at 4 hrs by LC-MS/MS analysis; format: ADME, organism-based
[11] = Drug level in liver of Sprague-Dawley rat at 10 mg/kg, po administered as single dose via gavage measured at 8 hrs by LC-MS/MS analysis; format: ADME, organism-based; details: read-out: Drug uptake
[12] = Drug level in plasma of Sprague-Dawley rat at 10 mg/kg, po administered as single dose via gavage measured at 48 hrs by LC-MS/MS analysis; format: ADME, organism-based
[13] = target: T1, Fatty-acid amide hydrolase 1 (Homo sapiens, UniProt O00519); test: Inhibition of human transmembrane domain deficient FFAH expressed in Escherichia coli using AAMCA as substrate incubated for 1 min measured for 50 mins by fluorescence assay
T1 sequence (O00519 whole entry): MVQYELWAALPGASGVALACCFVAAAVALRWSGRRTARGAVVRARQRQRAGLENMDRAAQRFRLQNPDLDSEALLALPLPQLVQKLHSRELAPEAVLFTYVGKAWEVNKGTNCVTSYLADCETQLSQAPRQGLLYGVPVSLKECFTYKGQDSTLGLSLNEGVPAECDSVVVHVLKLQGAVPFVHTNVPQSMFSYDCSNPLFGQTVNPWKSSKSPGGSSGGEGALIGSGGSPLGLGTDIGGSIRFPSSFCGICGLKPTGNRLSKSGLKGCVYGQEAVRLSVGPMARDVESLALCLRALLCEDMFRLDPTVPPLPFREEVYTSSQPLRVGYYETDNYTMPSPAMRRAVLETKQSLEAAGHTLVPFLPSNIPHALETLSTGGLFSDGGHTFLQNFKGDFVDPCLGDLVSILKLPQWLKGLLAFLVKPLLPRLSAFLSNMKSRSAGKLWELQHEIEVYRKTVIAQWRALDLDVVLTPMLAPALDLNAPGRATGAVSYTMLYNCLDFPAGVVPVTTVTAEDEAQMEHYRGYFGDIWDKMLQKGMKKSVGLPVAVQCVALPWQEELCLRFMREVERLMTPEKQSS

[14] = Drug level in brain of Sprague-Dawley rat at 10 mg/kg, po administered as single dose via gavage measured at 24 hrs by LC-MS/MS analysis; format: ADME, organism-based; details: read-out: Drug uptake
[15] = Drug level in plasma of Sprague-Dawley rat at 10 mg/kg, po administered as single dose via gavage measured at 32 hrs by LC-MS/MS analysis; format: ADME, organism-based
[16] = target: T2, Cytochrome P450 3A4 (Homo sapiens, UniProt P08684); test: Inhibition of CYP3A4 in human liver microsomes using midazolam as substrate preincubated for 5 mins followed by NADPH cofactor addition and measured after 10 mins by LC-MS/MS analysis; format: ADME
[17] = Drug level in liver of Sprague-Dawley rat at 10 mg/kg, po administered as single dose via gavage measured at 2 hrs by LC-MS/MS analysis; format: ADME, organism-based; details: read-out: Drug uptake
[18] = Drug level in liver of Sprague-Dawley rat at 10 mg/kg, po administered as single dose via gavage measured at 24 hrs by LC-MS/MS analysis; format: ADME, organism-based; details: read-out: Drug uptake
[19] = Clearance in Sprague-Dawley rat at 3 mg/kg, iv or 10 mg/kg, po administered as single dose via gavage by LC-MS/MS analysis; format: ADME, organism-based; details: in vivo
[20] = Volume of distribution at steady state in Sprague-Dawley rat at 3 mg/kg, iv administered as single dose by LC-MS/MS analysis; format: ADME, organism-based; details: in vivo, read-out: Vdss
[21] = target: Cytochrome P450 2C19 (Homo sapiens, UniProt P33261); test: Inhibition of CYP2C19 in human liver microsomes using (S)-mephenytoin as substrate preincubated for 5 mins followed by NADPH cofactor addition and measured after 40 mins by LC-MS/MS analysis; format: ADME
[22] = Drug level in liver of Sprague-Dawley rat at 10 mg/kg, po administered as single dose via gavage measured at 48 hrs by LC-MS/MS analysis; format: ADME, organism-based; details: read-out: Drug uptake
[23] = Drug level in liver of Sprague-Dawley rat at 10 mg/kg, po administered as single dose via gavage measured at 4 hrs by LC-MS/MS analysis; format: ADME, organism-based; details: read-out: Drug uptake
[24] = AUC (0 to 48 hrs) in plasma of Sprague-Dawley rat at 10 mg/kg, po administered as single dose via gavage by LC-MS/MS analysis; format: ADME, organism-based; parameters: time < 48 hr, dose 10 mg/kg, route oral
[25] = Drug level in brain of Sprague-Dawley rat at 10 mg/kg, po administered as single dose via gavage measured at 4 hrs by LC-MS/MS analysis; format: ADME, organism-based; details: read-out: Drug uptake
[26] = Drug level in brain of Sprague-Dawley rat at 10 mg/kg, po administered as single dose via gavage measured at 48 hrs by LC-MS/MS analysis; format: ADME, organism-based; details: read-out: Drug uptake
[27] = target: T2, Cytochrome P450 3A4; test: Inhibition of CYP3A4 in human liver microsomes using testosterone as substrate preincubated for 5 mins followed by NADPH cofactor addition and measured after 10 mins by LC-MS/MS analysis; format: ADME
[28] = Drug level in plasma of Sprague-Dawley rat at 10 mg/kg, po administered as single dose via gavage measured at 2 hrs by LC-MS/MS analysis; format: ADME, organism-based
[29] = Drug level in brain of Sprague-Dawley rat at 10 mg/kg, po administered as single dose via gavage measured at 2 hrs by LC-MS/MS analysis; format: ADME, organism-based; details: read-out: Drug uptake
[30] = AUC (0 to 48 hrs) in brain of Sprague-Dawley rat at 10 mg/kg, po administered as single dose via gavage by LC-MS/MS analysis; format: ADME, organism-based; parameters: dose 10 mg/kg, time < 48 hr, route oral

Chain of Cytochrome P450 2C19 (P33261 whole entry): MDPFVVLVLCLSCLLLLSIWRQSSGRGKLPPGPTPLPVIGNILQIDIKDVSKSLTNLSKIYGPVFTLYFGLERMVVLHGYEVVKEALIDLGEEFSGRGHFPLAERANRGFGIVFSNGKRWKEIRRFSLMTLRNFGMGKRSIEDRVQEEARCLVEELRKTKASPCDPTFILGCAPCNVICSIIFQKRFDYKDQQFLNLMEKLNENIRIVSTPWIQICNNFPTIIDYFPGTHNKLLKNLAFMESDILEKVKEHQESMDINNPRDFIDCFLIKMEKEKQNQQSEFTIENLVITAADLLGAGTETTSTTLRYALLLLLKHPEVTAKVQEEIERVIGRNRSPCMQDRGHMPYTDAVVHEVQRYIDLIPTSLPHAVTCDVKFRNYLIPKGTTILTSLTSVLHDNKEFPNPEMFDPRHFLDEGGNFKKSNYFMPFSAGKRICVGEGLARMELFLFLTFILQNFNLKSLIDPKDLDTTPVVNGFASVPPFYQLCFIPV
Chain of Cytochrome P450 2C9 (P11712 whole entry): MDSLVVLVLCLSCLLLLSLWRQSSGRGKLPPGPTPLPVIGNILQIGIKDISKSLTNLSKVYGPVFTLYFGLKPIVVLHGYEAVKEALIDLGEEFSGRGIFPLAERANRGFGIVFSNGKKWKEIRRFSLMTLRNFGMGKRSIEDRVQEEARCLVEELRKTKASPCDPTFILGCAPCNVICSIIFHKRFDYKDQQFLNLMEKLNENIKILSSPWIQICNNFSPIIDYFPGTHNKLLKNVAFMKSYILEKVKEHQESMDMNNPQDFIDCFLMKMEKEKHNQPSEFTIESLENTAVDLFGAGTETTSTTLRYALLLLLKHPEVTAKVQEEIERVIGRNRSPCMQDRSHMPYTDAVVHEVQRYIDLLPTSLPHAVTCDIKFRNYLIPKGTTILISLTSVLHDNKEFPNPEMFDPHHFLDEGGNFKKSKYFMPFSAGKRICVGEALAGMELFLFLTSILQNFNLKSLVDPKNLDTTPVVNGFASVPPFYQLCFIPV
T2 sequence (P08684 whole entry): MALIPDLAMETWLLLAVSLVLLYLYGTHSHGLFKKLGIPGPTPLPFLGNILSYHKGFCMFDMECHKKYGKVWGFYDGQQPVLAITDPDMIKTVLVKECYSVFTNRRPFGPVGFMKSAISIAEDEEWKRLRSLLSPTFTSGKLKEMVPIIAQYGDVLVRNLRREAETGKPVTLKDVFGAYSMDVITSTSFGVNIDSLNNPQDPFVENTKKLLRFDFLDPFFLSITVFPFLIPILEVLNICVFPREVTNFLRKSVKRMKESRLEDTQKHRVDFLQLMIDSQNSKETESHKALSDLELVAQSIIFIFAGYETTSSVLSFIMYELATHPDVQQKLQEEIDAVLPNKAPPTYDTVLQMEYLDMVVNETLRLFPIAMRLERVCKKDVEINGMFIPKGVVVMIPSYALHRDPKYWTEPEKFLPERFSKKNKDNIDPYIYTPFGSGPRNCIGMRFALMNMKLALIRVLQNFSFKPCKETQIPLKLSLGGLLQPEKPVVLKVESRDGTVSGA

Compound	clearance [3] [mL/min/kg]	Vd [4] [L/kg]	Cmax [5] [µM]	IC50 [6] [µM]	AUC(0-t) at 48 h [7] [µM·h]	half-life [8] [h]	Kp [9]	concentration at 4 h [10] [µM]	concentration at 8 h [11] [µM]	IC50 [13] [µM]	concentration at 24 h [14] [µM]	IC50 [16] [µM]	concentration at 2 h [17] [µM]	concentration at 24 h [18] [µM]	clearance [19] [mL/min/kg]	Vd [20] [L/kg]	IC50 [21] [µM]	concentration at 4 h [23] [µM]	AUC(0-t) at 48 h [24] [µM·h]	concentration at 4 h [25] [µM]	other results
Nc1ncc(C(=O)N[C@H]2CC/C(=C\c3cccc(Oc4ccc(C(F)(F)F)cn4)c3)CC2)cn1 (centres undefined)	0.6	0.8	7.8	6.5	1020	17.2	0.8	7.8	34	0.0006	4.4	> 12.5	31	23	0.6	0.8	> 12.5	38	237	6.3	concentration at 32 h [1]: 13 µM; Drug metabolism [2]: ≤ 0.04 nmol/min/mg; concentration at 48 h [12]: 1.3 µM; concentration at 32 h [15]: 2.7 µM; concentration at 48 h [22]: 8.9 µM; concentration at 48 h [26]: 1.1 µM; IC50 [27]: > 12.5 µM; concentration at 2 h [28]: 7.2 µM; concentration at 2 h [29]: 6.5 µM; AUC(0-t) at 48 h [30]: 192 µM·h
O=C(N[C@H]1CC/C(=C\c2cccc(Oc3ccc(C(F)(F)F)cn3)c2)CC1)c1cccnc1 (centres undefined)	2.4	0.9	7.2	2.7	580	5.1	1.5	3.3	32	0.0007	1.1	2.4	52	7.7	2.4	0.9	4.6	43	55	6	Drug metabolism [2]: 0.04 nmol/min/mg; IC50 [27]: 0.4 µM; concentration at 2 h [28]: 7.2 µM; concentration at 2 h [29]: 6.1 µM; AUC(0-t) at 48 h [30]: 84 µM·h
Nc1ccc(C(=O)N[C@H]2CC/C(=C\c3cccc(Oc4ccc(C(F)(F)F)cn4)c3)CC2)cn1 (centres undefined)	0.7	0.6	8.8	3.4	1950	9.2	0.6	8.6	74.9	0.0012	2.5	> 12.5	72.6	33	0.7	0.6	9.1	69.7	212	4.5	concentration at 32 h [1]: 26.5 µM; concentration at 48 h [12]: 1 µM; concentration at 32 h [15]: 2.2 µM; concentration at 48 h [22]: 16.2 µM; concentration at 48 h [26]: 0.7 µM; IC50 [27]: > 12.5 µM; concentration at 2 h [28]: 8.8 µM; concentration at 2 h [29]: 5.1 µM; AUC(0-t) at 48 h [30]: 135 µM·h
Cc1cc(C(=O)N[C@H]2CC/C(=C\c3cccc(Oc4ccc(C(F)(F)F)cn4)c3)CC2)cnc1N (centres undefined)	0.8	1.2	6.7	9.2	1130	17	0.5	4.8	37	0.0013	1.3	> 12.5	41	22	0.8	1.2	> 12.5	37	166	3.1	concentration at 32 h [1]: 20 µM; Drug metabolism [2]: 0.06 to 0.07 nmol/min/mg; concentration at 48 h [12]: 1.1 µM; concentration at 32 h [15]: 3 µM; concentration at 48 h [22]: 9.1 µM; concentration at 48 h [26]: 0.6 µM; IC50 [27]: > 12.5 µM; concentration at 2 h [28]: 6.7 µM; concentration at 2 h [29]: 2 µM; AUC(0-t) at 48 h [30]: 80.1 µM·h
